According to ChEMBL document CHEMBL5113380, “Functionalized quinoxalinones as privileged structures with broad-ranging pharmacological activities” (Eur J Med Chem, 2022):
In brackets after ≈: the same amount, converted by molar mass.

Experiments:
Pyricularia grisea [1] = test: Antifungal activity against Magnaporthe grisea GD08-T19 assessed as diameter zone of inhibition; assay type: functional
Pyricularia grisea [2] = test: Antifungal activity against Magnaporthe grisea GD08-T19 at 50 ug/ml; assay type: functional; conditions: dose 50 µg/ml
[3] = Antioxidant activity assessed as DPPH radical scavenging activity; assay type: functional
Candida albicans = test: Antifungal activity against Candida albicans; assay type: functional
Staphylococcus aureus [4] = test: Antibacterial activity against methicillin-resistant Staphylococcus aureus; assay type: functional
Escherichia coli [5] = test: Antibacterial activity against Escherichia coli; assay type: functional
Staphylococcus aureus [6] = test: Antibacterial activity against Staphylococcus aureus; assay type: functional
Pseudomonas aeruginosa = test: Antibacterial activity against Pseudomonas aeruginosa; assay type: functional
Klebsiella pneumoniae = test: Antibacterial activity against Klebsiella pneumoniae; assay type: functional
[7] = system: Mycobacterium tuberculosis; test: Antimycobacterial activity against Mycobacterium tuberculosis H37Rv; assay type: functional
Enterococcus faecalis = test: Antibacterial activity against Enterococcus faecalis; assay type: functional
Aspergillus fumigatus = test: Antifungal activity against Aspergillus fumigatus; assay type: functional
[8] = Antioxidant activity assessed as H2O2 radical scavenging activity; assay type: functional
[9] = Antioxidant activity assessed as NO radical scavenging activity; assay type: functional
Streptococcus pneumoniae = test: Antibacterial activity against Streptococcus pneumoniae; assay type: functional
[10] = Inhibition of Escherichia coli topoisomerase 4
Escherichia coli [11] = test: Antibacterial activity against Escherichia coli W3110; assay type: functional
Bacillus subtilis = test: Antibacterial activity against Bacillus subtilis assessed as diameter zone of inhibition; assay type: functional
Staphylococcus aureus [12] = test: Antibacterial activity against Staphylococcus aureus assessed as diameter zone of inhibition; assay type: functional
MRC5 = test: Antiproliferative activity against human MRC5 cells; assay type: functional, cell-based
HeLa = test: Antiproliferative activity against human HeLa cells; assay type: functional, cell-based
LS174T = test: Antiproliferative activity against human LS174T cells; assay type: functional, cell-based
A549 = test: Antiproliferative activity against human A549 cells; assay type: functional, cell-based
HCT-116 = test: Antiproliferative activity against human HCT-116 cells after 72 hrs by MTT assay; assay type: functional, cell-based; conditions: HCT-116, 72 h
NCI-H460 = test: Antiproliferative activity against human NCI-H460 cells after 72 hrs by MTT assay; assay type: functional, cell-based; conditions: NCI-H460, 72 h
B16-F10 = test: Antiproliferative activity against mouse B16-F10 cells after 72 hrs by MTT assay; assay type: functional, cell-based; conditions: B16-F10, 72 h
HeLa 229 = test: Antiproliferative activity against human HeLa 229 cells after 72 hrs by MTT assay; assay type: functional, cell-based; conditions: HeLa 229, 72 h
[13] = Inhibition of cGMP-dependent 3',5'-cyclic phosphodiesterase (unknown origin); set-up: species or system Homo sapiens
Coronary artery = test: Vasorelaxant activity in dog coronary arteries; assay type: functional, tissue-based; conditions: Canis lupus familiaris
[14] = biological target: 3',5'-cyclic phosphodiesterase; test: Inhibition of cAMP-specific 3',5'-cyclic phosphodiesterase (unknown origin); assay type: protein assay, Homo sapiens
Papillary muscle = test: Positive inotropic activity in ferret papillary muscle assessed as contractile force measured as CFC20; assay type: functional, Mustela putorius furo
Mesenteric vein = test: Vasorelaxant activity in dog mesenteric veins; assay type: functional, tissue-based; conditions: Canis lupus familiaris
[15] = biological target: Vascular endothelial growth factor receptor 2 (Homo sapiens, UniProt P35968)
HepG2 = test: Antiproliferative activity against human HepG2 cells; assay type: functional, cell-based
MCF7 = test: Antiproliferative activity against human MCF7 cells; assay type: functional, cell-based
[16] = Dissociation constant, pKa of the compound; assay type: physicochemical

Chain of Vascular endothelial growth factor receptor 2 (P35968 whole entry): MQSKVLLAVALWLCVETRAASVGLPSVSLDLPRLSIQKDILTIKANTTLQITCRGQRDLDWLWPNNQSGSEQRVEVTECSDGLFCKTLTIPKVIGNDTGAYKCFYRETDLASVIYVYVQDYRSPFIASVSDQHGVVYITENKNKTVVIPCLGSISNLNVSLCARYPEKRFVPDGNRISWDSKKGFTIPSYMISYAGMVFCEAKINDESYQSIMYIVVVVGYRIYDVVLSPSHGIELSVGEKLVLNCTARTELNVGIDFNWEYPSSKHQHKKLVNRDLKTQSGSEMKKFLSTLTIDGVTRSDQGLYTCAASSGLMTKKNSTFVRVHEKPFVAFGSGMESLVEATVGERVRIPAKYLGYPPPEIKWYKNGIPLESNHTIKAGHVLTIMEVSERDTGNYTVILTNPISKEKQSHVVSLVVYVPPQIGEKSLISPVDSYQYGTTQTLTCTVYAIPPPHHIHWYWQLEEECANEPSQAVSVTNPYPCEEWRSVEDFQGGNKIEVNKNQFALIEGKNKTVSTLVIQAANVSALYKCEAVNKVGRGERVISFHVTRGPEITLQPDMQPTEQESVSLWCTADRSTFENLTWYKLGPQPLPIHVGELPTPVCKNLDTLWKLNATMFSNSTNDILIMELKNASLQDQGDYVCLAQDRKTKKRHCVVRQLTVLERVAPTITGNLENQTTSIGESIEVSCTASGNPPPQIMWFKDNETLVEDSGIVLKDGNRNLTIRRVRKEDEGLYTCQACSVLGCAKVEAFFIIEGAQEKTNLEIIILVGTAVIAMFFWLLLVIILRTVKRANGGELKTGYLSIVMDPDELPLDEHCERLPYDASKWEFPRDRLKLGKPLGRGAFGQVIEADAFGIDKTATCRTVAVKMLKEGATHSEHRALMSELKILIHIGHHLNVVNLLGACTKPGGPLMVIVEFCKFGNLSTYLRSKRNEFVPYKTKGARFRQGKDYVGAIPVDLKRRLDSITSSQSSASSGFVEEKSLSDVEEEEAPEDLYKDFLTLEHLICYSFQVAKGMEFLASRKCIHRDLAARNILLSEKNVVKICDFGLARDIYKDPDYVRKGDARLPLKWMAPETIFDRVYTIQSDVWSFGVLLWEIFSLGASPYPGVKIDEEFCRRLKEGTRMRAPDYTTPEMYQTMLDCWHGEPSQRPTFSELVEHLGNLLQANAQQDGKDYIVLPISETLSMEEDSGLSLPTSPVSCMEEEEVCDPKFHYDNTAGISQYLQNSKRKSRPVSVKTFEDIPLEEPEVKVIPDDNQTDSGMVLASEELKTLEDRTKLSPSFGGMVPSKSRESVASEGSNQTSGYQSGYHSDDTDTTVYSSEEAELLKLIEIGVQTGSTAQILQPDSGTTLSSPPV

Cc1ccc(S(=O)(=O)NCCCC(CC(F)(F)F)c2nc3ccccc3n(C)c2=O)cc1 (centres undefined)
diameter of the inhibition zone (DIZ) (Pyricularia grisea [1]): 47 mm
Activity (Pyricularia grisea [2]): 23%

CSCCc1nc2ccc(N3C(=O)CSC3c3ccc(F)cc3)cc2[nH]c1=O (centres undefined)
IC50 ([3]; read-out: IC50): 156 µM
MBC (Candida albicans): 35.1 µM (≈ 14.6 µg/mL)
MBC (Staphylococcus aureus [4]): 93.7 µM (≈ 38.9 µg/mL)
MBC (Escherichia coli [5]): 46.8 µM (≈ 19.4 µg/mL)
MBC (Staphylococcus aureus [6]): 23.4 µM (≈ 9.72 µg/mL)
MBC (Pseudomonas aeruginosa): 70.3 µM (≈ 29.2 µg/mL)
MBC (Klebsiella pneumoniae): 11.7 µM (≈ 4.86 µg/mL)

C/C(=N\NC(=O)Cn1c(=O)c(C)nc2ccccc21)c1ccc(N)cc1
MIC [7]: 25 µg/mL (≈ 71.6 µM)
MIC (Enterococcus faecalis): 16.1 µg/mL (≈ 46 µM)
MIC (Candida albicans): 16.1 µg/mL (≈ 46 µM)
MIC (Aspergillus fumigatus): 1 µg/mL (≈ 2.86 µM)
MIC (Escherichia coli [5]): 125 µg/mL (≈ 358 µM)
MIC (Staphylococcus aureus [6]): 125 µg/mL (≈ 358 µM)
MIC (Klebsiella pneumoniae): 125 µg/mL (≈ 358 µM)

Cc1nc2ccccc2n(CC(=O)N/N=C/c2ccc(OCCn3cc(CN4CCOCC4)nn3)cc2)c1=O
IC50 [3]: 25 µg/mL
IC50 [8]: 49.01 µg/mL (≈ 92.4 µM)
IC50 [9]: 47.16 µg/mL (≈ 88.9 µM)

N#Cc1ccc2c(c1)N(CCN1CCC(NCc3ccc4c(n3)NC(=O)CO4)CC1)C(=O)CO2
MIC (Streptococcus pneumoniae): 0.5 µg/mL (≈ 1.08 µM)
MIC (Staphylococcus aureus [6]): 0.13 µg/mL (≈ 0.281 µM)
IC50 [10]: 0.0032 µM
MIC (Pseudomonas aeruginosa): 2 µg/mL (≈ 4.32 µM)
MIC (Escherichia coli [11]): 0.25 µg/mL (≈ 0.541 µM)

O=c1[nH]c2ccccc2nc1Cc1nnc(S)o1
diameter of the inhibition zone (DIZ) (Bacillus subtilis): 10 mm
diameter of the inhibition zone (DIZ) (Staphylococcus aureus [12]): 11 mm

O=C(/C=C/c1ccccc1)/C=C1/Nc2ccccc2NC1=O
IC50 (MRC5): 174 µM
IC50 (HeLa): 16.6 µM
IC50 (LS174T): 19.1 µM
IC50 (A549): 22.6 µM

O=c1[nH]c2ccccc2nc1/C=C/c1ccccc1Br
IC50 (HCT-116): 12.3 µM
IC50 (NCI-H460): 9.62 µM
IC50 (B16-F10): 7.61 µM
IC50 (HeLa 229): > 50 µM

C/C(=N\NC(=O)Cn1c(=O)c(C)nc2ccccc21)c1ccc(O)cc1
MIC [7]: 25 µg/mL (≈ 71.4 µM)
MIC (Enterococcus faecalis): 16.1 µg/mL (≈ 45.8 µM)
MIC (Candida albicans): 4 µg/mL (≈ 11.4 µM)
MIC (Aspergillus fumigatus): 4 µg/mL (≈ 11.4 µM)
MIC (Escherichia coli [5]): 125 µg/mL (≈ 357 µM)
MIC (Staphylococcus aureus [6]): 250 µg/mL (≈ 714 µM)
MIC (Klebsiella pneumoniae): 125 µg/mL (≈ 357 µM)

Oc1nc2cccnc2n2ccnc12
IC50 [13]: 27 µM
EC50 (Coronary artery): 11 µM
IC50 [14]: 44 µM
Activity (Papillary muscle): 2.2 µM
EC50 (Mesenteric vein): 10 µM

Cc1ccc(-n2cc(COc3ccc(/C=N/NC(=O)Cn4c(=O)c(C)nc5ccccc54)cc3)nn2)cc1
IC50 [3]: 26.04 µg/mL
IC50 [8]: 52.08 µg/mL (≈ 103 µM)
IC50 [9]: 48.07 µg/mL (≈ 94.7 µM)

O=C1CSC(c2ccc(F)cc2)N1c1ccc2nc(Cc3ccc(O)cc3)c(=O)[nH]c2c1 (centres undefined)
IC50 ([3]; read-out: IC50): 239 µM
MBC (Candida albicans): 65.2 µM (≈ 29.2 µg/mL)
MBC (Staphylococcus aureus [4]): 87 µM (≈ 38.9 µg/mL)
MBC (Escherichia coli [5]): 32.6 µM (≈ 14.6 µg/mL)
MBC (Staphylococcus aureus [6]): 43.5 µM (≈ 19.5 µg/mL)
MBC (Pseudomonas aeruginosa): 21.7 µM (≈ 9.71 µg/mL)
MBC (Klebsiella pneumoniae): 87 µM (≈ 38.9 µg/mL)

C/C(=N\NC(=O)Cn1c(=O)c(C)nc2ccccc21)c1cccnc1
MIC [7]: 25 µg/mL (≈ 74.5 µM)
MIC (Enterococcus faecalis): 16.1 µg/mL (≈ 47.9 µM)
MIC (Candida albicans): 16.1 µg/mL (≈ 47.9 µM)
MIC (Aspergillus fumigatus): 8.06 µg/mL (≈ 24 µM)
MIC (Escherichia coli [5]): 125 µg/mL (≈ 373 µM)
MIC (Staphylococcus aureus [6]): 250 µg/mL (≈ 745 µM)
MIC (Klebsiella pneumoniae): 125 µg/mL (≈ 373 µM)

Cn1c(=O)c(C(CCCOc2cc(=O)oc3ccccc23)CC(F)(F)F)nc2ccccc21 (centres undefined)
diameter of the inhibition zone (DIZ) (Pyricularia grisea [1]): 48 mm
Activity (Pyricularia grisea [2]): 23%

O=C(Cn1c(=O)c2nncn2c2ccccc21)Nc1ccc(C(=O)Nc2cc(Cl)ccc2Cl)cc1
IC50 [15]: 0.0048 µM
IC50 (HepG2): 8.4 µM
IC50 (MCF7): 10.3 µM

Cc1nc2ccccc2n(CC(=O)N/N=C/c2ccc(OCCn3cc(CN4CCCCC4)nn3)cc2)c1=O
IC50 [3]: 28.24 µg/mL
IC50 [8]: 54.34 µg/mL (≈ 103 µM)
IC50 [9]: 52.08 µg/mL (≈ 98.5 µM)

Cn1c(=O)c(C(CCCOC(=O)c2cccs2)CC(F)(F)F)nc2ccccc21 (centres undefined)
diameter of the inhibition zone (DIZ) (Pyricularia grisea [1]): 47 mm
Activity (Pyricularia grisea [2]): 23%

N#Cc1ccc2ccc(=O)n(CCN3CC[C@H](NCc4cc5c(cn4)OCCO5)[C@H](F)C3)c2c1
MIC (Streptococcus pneumoniae): 0.13 µg/mL (≈ 0.28 µM)
pKa [16]: 4.47
MIC (Staphylococcus aureus [6]): 0.06 µg/mL (≈ 0.129 µM)
IC50 [10]: 0.048 µM
MIC (Pseudomonas aeruginosa): > 8 µg/mL
MIC (Escherichia coli [11]): 4 µg/mL (≈ 8.63 µM)
